{"source": "patent US20160030530A1", "about": "“SULFORAPHANE/SULFORAPHANE PRECURSOR AND PHYTOSTEROL/PHYTOSTANOL COMPOSITIONS” (NUTRAMAX LABORATORIES, INC., priority 2013, published 2016)", "key": {"chondrocytes": {"test_system": "chondrocytes", "settings": "IL-1β-induced NF-κB pathway; cited from earlier work"}, "[1]": {"test_system": "broccoli sprout-derived myrosinase", "experiment": "Consumption of glucoraphanin as a function of the ascorbic acid concentration (hydrolysis by myrosinase)", "type": "biochemical", "procedure": "About 250 mg of broccoli seed extract containing about 12% (w/w) glucoraphanin were subjected to hydrolysis by a fixed concentration of broccoli sprout-derived myrosinase in the presence of variable concentration of ascorbic acid, ranging from 0 to 600 μmoles/Liter. The reaction mixtures were thermostated at 38° C.; aliquots were withdrawn every 15 minutes for 60 minutes, and concentration of glucoraphanin determined chromatographically. The rate of glucoraphanin consumption was interpreted as the rate its conversion to sulforaphane. Graphical representation of glucoraphanin content reduction as a function of increasing ascorbic acid concentration results in a series of linear plots; the slopes of the linear regression lines reflect the rate of glucoraphanin consumption, in μmoles/minute. It is apparent that in the presence of 600 μmoles/Liter concentration of ascorbic acid, the reaction rate increased 13-fold relative to that which proceeded in the absence of modulatory effects of ascorbic acid."}, "myrosinase [2]": {"test_system": "myrosinase", "experiment": "Conversion of glucoraphanin to sulforaphane in the presence of Simulated Intestinal Fluid", "type": "biochemical, broccoli", "settings": "0.25 to 1.00 mmol/Liter ascorbic acid, 38° C., 2 hours", "procedure": "Simulated Intestinal Fluid (SIF) powder, a commercially supplied concentrate closely approximating the human intestinal content in terms of composition, pH and ionic strength, was used. The experiment utilized a USP Dissolution Apparatus 2 (paddles), where into six dissolution vessels 500 mL of Simulated Intestinal Fluid was dispensed, along with 150 mg of freeze-dried broccoli sprout powder as a source of myrosinase. In vessels 1-4, the concentration of ascorbic acid was varied from 0.25 to 1.00 mmol/Liter; in vessel 5, in addition to 1 mmol/Liter ascorbic acid, 3.125 g of pancreatin (8×USP) was suspended; in vessel 6, in addition to 1 mmol/Liter ascorbic acid, and 3.125 g of pancreatin (8×USP), a doubled amount of freeze-dried broccoli sprout powder (300 mg) was added. After vessels were brought to 38° C., 250 mg of glucoraphanin-rich (12%, w/w) broccoli seed extract was added to each, and the resulting suspensions were stirred at 75 RPM for 2 hours. Aliquots were withdrawn every 15 minutes, and assayed for sulforaphane."}, "myrosinase [3]": {"test_system": "myrosinase", "experiment": "Equimolar conversion of glucoraphanin to sulforaphane, role of ascorbic acid in modulating myrosinase activity", "type": "biochemical, broccoli", "settings": "control sample, without ascorbic acid", "procedure": "A two-part experiment was conducted to further elucidate the role of ascorbic acid in modulating myrosinase activity. […] A control sample contained no ascorbic acid, and the enzymatic conversion proceeded unassisted by a co-factor. PART 1. […] PART 2. While keeping the amount of broccoli seed extract fixed at 250 mg, the concentration of ascorbic acid was varied from 0.4 mmol/Liter to 3.8 mmol/Liter. The table below presents glucoraphanin and sulforaphane expressed in μmoles."}}, "data": [{"smiles": "CC[C@H](/C=C/[C@@H](C)[C@H]1CC[C@H]2[C@@H]3CC=C4C[C@@H](O)CC[C@]4(C)[C@H]3CC[C@]12C)C(C)C", "note": "[stigmasterol, 3β-stigmasta-5,22,-dien-3-ol]", "values": [{"measurement": "Pro-inflammatory and matrix degradation mediators (MMP-3, MMP-13, ADAMTS-4, PGE2)", "setting": "chondrocytes", "result": "inhibits several pro-inflammatory and matrix degradation mediators"}]}, {"smiles": "O=C1O[C@H]([C@@H](O)CO)C(O)=C1O", "note": "[Ascorbic Acid, ascorbic acid]", "values": [{"measurement": "Slope (rate of glucoraphanin consumption)", "setting": "[1]; 0 μM ascorbic acid, linear regression 0-60 min", "result": -0.09293, "unit": "µmol/min"}, {"measurement": "Glucoraphanin (GR) content", "setting": "[1]; 0 μM ascorbic acid, time 15 min, 38° C.", "result": 92.24, "unit": "µmol"}, {"measurement": "Glucoraphanin (GR) content", "setting": "[1]; 0 μM ascorbic acid, time 30 min, 38° C.", "result": 90.71, "unit": "µmol"}, {"measurement": "Glucoraphanin (GR) content", "setting": "[1]; 0 μM ascorbic acid, time 45 min, 38° C.", "result": 89.44, "unit": "µmol"}, {"measurement": "Glucoraphanin (GR) content", "setting": "[1]; 0 μM ascorbic acid, time 60 min, 38° C.", "result": 87.79, "unit": "µmol"}, {"measurement": "Increase of reaction rate relative to absence of ascorbic acid", "setting": "[1]; 600 μmoles/Liter ascorbic acid, 38° C.", "result": 13, "unit": "fold"}, {"measurement": "Yield of sulforaphane versus ascorbic acid concentration", "setting": "myrosinase [2]", "result": "direct correlation between larger yield of sulforaphane and higher concentrations of ascorbic acid"}]}, {"smiles": "C[S+]([O-])CCCC/C(=N\\OS(=O)(=O)O)S[C@@H]1O[C@H](CO)[C@@H](O)[C@H](O)[C@H]1O", "note": "(stereo partly drawn) [glucoraphanin, 4-methylsulfinylbutyl glucosinolate]", "values": [{"measurement": "Conversion of glucoraphanin to sulforaphane (amount consumed versus amount produced)", "setting": "myrosinase [3]", "result": "equimolar conversion of glucoraphanin to sulforaphane"}]}]}
